# Test results reported in patent US20130072506A1, “6,8-DISUBSTITUTED PURINE COMPOSITIONS” (priority 2011, published 2013).
# Read-outs that look alike come from different tables or passages of the source.
# Legend:
# [1] = test system: erytroid leukemia cell line K-562; test: In vitro cytotoxic activity (metabolisation of Calcein AM); type: cell-based, human; settings: 72 hours incubation, called GI50, read-out: Cell line tested/IC50 (μmol/L) K-562
# Excerpt: (§1) In vitro Cytotoxic Activity (Metabolisation of Calcein AM). Because toxic compounds negatively influence metabolic processes of cells, many standard cytotoxicity assays are based on measurement of metabolisation rate of various artificial substrates. Resulting product is then quantified, for example, by means of spectrometry. The assays can be easily modified for use in 96-well plates. For evaluation of cytotoxicity of the 6,8-disubstituted purines of this invention, a microtiter assay based on quantification of metabolisation of Calcein AM was used. The assay is widely used in drug screening programs and in chemosensitivity testing. In live cells, Calcein AM is enzymatically hydrolysed and accumulation of resulting calcein is manifested by green fluorescence.
# (§2) The following human cell lines were used for routine screening of the compounds: normal diploid fibroblasts BJ, T-lymphoblastic leukemia cell line CEM, promyelocytic leukemia cell line HL-60, erytroid leukemia cell line K-562, breast carcinoma cell line MCF-7, osteosarcoma cell line HOS and melanoma cell line G-361. The cells were maintained in Nunc/Corning 80 cm^2 plastic tissue culture flasks and cultured in cell culture medium (DMEM with 5 g/l glucose, 2 mM glutamine, […] penicillin, 100 mmg/ml streptomycin, 10% fetal calf serum and sodium bicarbonate).
# (§3) The cell suspensions were prepared and diluted according to the particular cell type and the expected target cell density (2.500-30.000 cells per well based on cell growth characteristics) and pipetted (80 μl) into 96-well plates. Inoculates were allowed a pre-incubation period of 24 hours at 37° C. and 5% CO2 for stabilization. Tested compound was added in total volume of […] of water at time zero. Usually, test compound was evaluated at six 3-fold dilutions. In routine testing, the highest concentration tested was 100 μM, but it could have been adjusted because of limited solubility of a compound. All drug concentrations were tested in triplicates.
# (§4) Incubations of cells with the test compounds lasted for 72 hours at 37° C., in 5% CO2 atmosphere and 100% humidity. At the end of incubation period Calcein AM in PBS was added into final concentration of 1 μg/ml. After another 1 hour of incubation fluorescence (FD) was measured with the Labsystem FIA Reader Fluoroscan Ascent (UK). Growth inhibition (GI) was estimated using the following equitation: GI=(mean FDdrug exposed wells−mean FDblank)/(mean FDcontrol wells−mean FDblank)×100%. The GI50 value, the drug concentration causing 50% reduction of Calcein AM conversion, was calculated from the obtained dose response curves.
# [2] = test system: osteosarcoma cell line HOS; test: as above; type: cell-based, human; settings: HOS cells, 72 hours incubation, called GI50, read-out: Cell line tested/IC50 (μmol/L) HOS
# Excerpt: as §1, §2, §3, §4
# [3] = test system: T-lymphoblastic leukemia cell line CEM; test: as above; type: cell-based, human; settings: CEM cells, 72 hours incubation, called GI50, read-out: Cell line tested/IC50 (μmol/L) CEM
# Excerpt: as §1, §2, §3, §4
# [4] = test system: breast carcinoma cell line MCF-7; test: as above; type: cell-based, human; settings: MCF7 cells, 72 hours incubation, called GI50, read-out: Cell line tested/IC50 (μmol/L) MCF7
# Excerpt: as §1, §2, §3, §4
# melanoma cell line G-361 = test: as above; type: cell-based, human; settings: G-361 cells, 72 hours incubation, called GI50, read-out: Cell line tested/IC50 (μmol/L) G-361
# Excerpt: as §1, §2, §3, §4
# [5] = test system: normal diploid fibroblasts BJ; test: as above; type: cell-based, human; settings: BJ cells, 72 hours incubation, called GI50, read-out: Cell line tested/IC50 (μmol/L) BJ
# Excerpt: as §1, §2, §3, §4
# [6] = test system: Human diploid fibroblast BJ; test: In vitro cytotoxic activity (metabolisation of MTT); type: cell-based; settings: 72 hours, BJ passage 18-22
# Description: In vitro Cytotoxic Activity (metabolisation of Mtt). MTT ([…]) assay is a standard colorimetric assay for evaluation of cytotoxicity. Mitochondrial dehydrogenase activity converts yellow MTT into violet formazan which is measured by means of spectrometry.
# Human diploid fibroblast BJ (passage 18-22) were seeded into 96-well plate (5.000 cells per well). After 6 hours cultivation medium (DMEM with 5 g/l glucose, 2 mM glutamine, 100 U/ml penicillin, 100 mmg/ml streptomycin, 10% fetal calf serum and sodium bicarbonate) was replaced with the cultivation medium containing test compounds in concentration range of 0-200 μM. Highest concentration was adjusted if the solubility of the compound was limiting. Every concentration was tested in pentaplicate. MTT was added to the cells after 72 hours incubation (final concentration 0.5 mg/ml) and incubation continued for another 3 hours. MTT was solubilised by DMSO and absorbance at 570 nm was measured. Growth inhibition (GI) was estimated using the following equitation: GI=(mean A drug exposed wells−mean Ablank/mean Acontrol wells−mean Ablank)×100%. The GI20 value, the drug concentration causing 20% decrease in mitochondrial dehydrogenase activity, was calculated from the obtained dose response curves.
# [7] = Homo sapiens, K562, K-562 cells
Compound,IC50 ([1]; K-562 cells),IC50 [2],IC50 [3],IC50 [4],IC50 (melanoma cell line G-361),IC50 [5],GI20 [6],"IC50 [1, 7]",IC50 ([2]; Homo sapiens),"IC50 ([3]; Homo sapiens, CCRF-CEM)",IC50 ([4]; Homo sapiens),IC50 (melanoma cell line G-361; Homo sapiens),IC50 ([5]; Homo sapiens)
CC(=CCNc1ncnc2nc(Br)[nH]c12)CO [Compound 3],> 50 µmol/L,> 50 µmol/L,> 50 µmol/L,> 50 µmol/L,> 50 µmol/L,> 50 µmol/L,–,–,–,–,–,–,–
Oc1cccc(CNc2ncnc3nc(Cl)[nH]c23)c1O [Compound 46],> 50 µmol/L,> 100 µmol/L,> 100 µmol/L,> 100 µmol/L,> 100 µmol/L,> 100 µmol/L,>200 µM,–,–,–,–,–,–
Oc1cc(O)cc(CNc2ncnc3nc(Cl)[nH]c23)c1 [Compound 47],> 100 µmol/L,> 100 µmol/L,> 100 µmol/L,> 100 µmol/L,> 100 µmol/L,> 100 µmol/L,>200 µM,–,–,–,–,–,–
CC(=CCNc1ncnc2nc(N(C)C)[nH]c12)CO [Compound 63],> 50 µmol/L,> 50 µmol/L,> 50 µmol/L,> 50 µmol/L,> 50 µmol/L,> 50 µmol/L,>100 µM,–,–,–,–,–,–
CC(CO)CCNc1ncnc2nc(N(C)C)[nH]c12 (stereo not shown) [Compound 64],> 50 µmol/L,> 50 µmol/L,> 50 µmol/L,> 50 µmol/L,> 50 µmol/L,> 50 µmol/L,>100 µM,–,–,–,–,–,–
Nc1nc2ncnc(NCc3ccccc3Br)c2[nH]1 [Compound 93],> 50 µmol/L,> 50 µmol/L,> 50 µmol/L,> 50 µmol/L,> 50 µmol/L,> 50 µmol/L,–,–,–,–,–,–,–
COc1nc2ncnc(NCC=C(C)CO)c2[nH]1 [Compound 122],> 50 µmol/L,> 50 µmol/L,> 50 µmol/L,> 50 µmol/L,> 50 µmol/L,> 50 µmol/L,–,–,–,–,–,–,–
COc1nc2ncnc(NCc3cccc(OC)c3O)c2[nH]1 [Compound 130],> 50 µmol/L,> 50 µmol/L,> 50 µmol/L,> 50 µmol/L,> 50 µmol/L,> 50 µmol/L,–,–,–,–,–,–,–
"Sc1nc2ncnc(NCc3ccco3)c2[nH]1 [Compound 137, 6-furfurylamino-8-mercaptopurine]",–,–,–,–,–,–,–,> 50 µmol/L,> 50 µmol/L,> 50 µmol/L,> 50 µmol/L,> 50 µmol/L,> 50 µmol/L
"CSc1nc2ncnc(NCc3ccco3)c2[nH]1 [Compound 147, 6-furfurylamino-8-methylthiopurine]",–,–,–,–,–,–,–,> 50 µmol/L,> 50 µmol/L,> 50 µmol/L,> 50 µmol/L,> 50 µmol/L,> 50 µmol/L
Oc1nc2ncnc(NCc3ccco3)c2[nH]1 [Compound 166],> 50 µmol/L,> 50 µmol/L,> 50 µmol/L,> 50 µmol/L,> 50 µmol/L,> 50 µmol/L,–,–,–,–,–,–,–
CC(=CCNc1ncnc2nc(O)[nH]c12)CO [Compound 168],> 50 µmol/L,> 50 µmol/L,> 50 µmol/L,> 50 µmol/L,> 50 µmol/L,> 50 µmol/L,–,–,–,–,–,–,–
Oc1cccc(CNc2ncnc3nc(O)[nH]c23)c1 [Compound 169],> 50 µmol/L,> 50 µmol/L,> 50 µmol/L,> 50 µmol/L,> 50 µmol/L,> 50 µmol/L,–,–,–,–,–,–,–
COc1cccc(CNc2ncnc3nc(O)[nH]c23)c1 [Compound 170],> 50 µmol/L,> 50 µmol/L,> 50 µmol/L,> 50 µmol/L,> 50 µmol/L,> 50 µmol/L,–,–,–,–,–,–,–
Oc1nc2ncnc(Nc3ccccc3)c2[nH]1 [Compound 171],> 50 µmol/L,> 50 µmol/L,> 50 µmol/L,> 50 µmol/L,> 50 µmol/L,> 50 µmol/L,–,–,–,–,–,–,–
COc1cccc(Nc2ncnc3nc(O)[nH]c23)c1 [Compound 172],> 50 µmol/L,> 50 µmol/L,> 50 µmol/L,> 50 µmol/L,> 50 µmol/L,> 50 µmol/L,–,–,–,–,–,–,–
N#Cc1nc2ncnc(NCc3ccco3)c2[nH]1 [Compound 173],> 50 µmol/L,> 50 µmol/L,> 50 µmol/L,> 50 µmol/L,> 50 µmol/L,> 50 µmol/L,–,–,–,–,–,–,–
NCc1nc2ncnc(NCc3ccco3)c2[nH]1 [Compound 180],> 50 µmol/L,> 50 µmol/L,> 50 µmol/L,> 50 µmol/L,> 50 µmol/L,> 50 µmol/L,–,–,–,–,–,–,–
NCc1nc2ncnc(NCc3cccc(F)c3)c2[nH]1 [Compound 182],> 50 µmol/L,> 50 µmol/L,> 50 µmol/L,> 50 µmol/L,> 50 µmol/L,> 50 µmol/L,–,–,–,–,–,–,–
COc1cccc(CNc2ncnc3nc(CN)[nH]c23)c1 [Compound 183],> 50 µmol/L,> 50 µmol/L,> 50 µmol/L,> 50 µmol/L,> 50 µmol/L,> 50 µmol/L,–,–,–,–,–,–,–
NCc1nc2ncnc(Nc3ccccc3)c2[nH]1 [Compound 184],> 50 µmol/L,> 50 µmol/L,> 50 µmol/L,> 50 µmol/L,> 50 µmol/L,> 50 µmol/L,–,–,–,–,–,–,–
COc1ccccc1Nc1ncnc2nc(CN)[nH]c12 [Compound 185],> 50 µmol/L,> 50 µmol/L,> 50 µmol/L,> 50 µmol/L,> 50 µmol/L,> 50 µmol/L,–,–,–,–,–,–,–
COc1cccc(Nc2ncnc3nc(CN)[nH]c23)c1 [Compound 186],> 50 µmol/L,> 50 µmol/L,> 50 µmol/L,> 50 µmol/L,> 50 µmol/L,> 50 µmol/L,–,–,–,–,–,–,–
"COC(=O)c1nc2ncnc(NCc3ccco3)c2[nH]1 [Compound 187, 6-furfurylamino-8-(methoxycarbonyl)purine]",–,–,–,–,–,–,–,> 50 µmol/L,> 50 µmol/L,> 50 µmol/L,> 50 µmol/L,> 50 µmol/L,> 50 µmol/L
"CCOC(=O)c1nc2ncnc(NCc3ccco3)c2[nH]1 [Compound 194, 6-furfurylamino-8-(ethoxycarbonyl)purine]",–,–,–,–,–,–,–,> 50 µmol/L,> 50 µmol/L,> 50 µmol/L,> 50 µmol/L,> 50 µmol/L,> 50 µmol/L
O=C(O)c1nc2ncnc(NCc3ccco3)c2[nH]1 [Compound 201],> 50 µmol/L,> 50 µmol/L,> 50 µmol/L,> 50 µmol/L,> 50 µmol/L,> 50 µmol/L,–,–,–,–,–,–,–
"NCCCNc1nc2ncnc(NCc3ccco3)c2[nH]1 [Compound 208, 6-furfurylamino-8-(aminopropylamino)purine]",–,–,–,–,–,–,–,> 50 µmol/L,> 50 µmol/L,> 50 µmol/L,> 50 µmol/L,> 50 µmol/L,> 50 µmol/L
